Literature values, collected in patent publication US20220056157A1, “PROCESS FOR FRACTIONATING AN ESTERIFIED CELLULOSE ETHER” (DOW GLOBAL TECHNOLOGIES LLC, priority 2015, published 2022).
Values after ≈ are worked out from the molar mass of the structure shown.

water solubility: 0.13 ng/mL (≈ 0.216 nM)
Structure (SMILES): CCOC(=O)N1c2ccc(C(F)(F)F)cc2[C@@H](N(Cc2cc(C(F)(F)F)cc(C(F)(F)F)c2)C(=O)OC)C[C@H]1CC [Torcetrapib]
